# Measured values from patent publication US7445765B2, “Radiopharmaceutical for diagnostic imaging containing a technetium-99m nitride heterocomplex” (Nihon Medi-Physics Co., Ltd., priority 2000, dated 2008).
# Experiments:
# [1] = Stability: ligand exchange reaction with cysteine or glutathione; assay type: physicochemical; details: phosphate buffer pH 7.4, 37° C., up to 2 hours, TLC
# Protocol: The stability of the ^99mTc(N) heterocomplexes obtained using PNP3 as a bisphosphinoamine compound in Example 1 was confirmed by ligand exchange reaction with cysteine or glutathione.
# 250.0 μL of phosphate buffer solution (0.20 M, pH=7.4), 100 μL of water and 100 μL of each of the ^99mTc(N) heterocomplexes purified were mixed with 50 μL of each of cysteine solutions having different concentrations of 10 mM and 1.0 mM, and the resulting mixture was placed in a polypropylene test tube and incubated in a thermostat at 37° C. A blank solution was obtained by mixing an equal volume of water without addition of cysteine. Aliquots of the resulting solutions were withdrawn at 15 min, 30 min, 60 min and 2 hours after the start of the incubation, and analyzed by TLC. The same experiment as above was carried out except for using glutathione in place of cysteine. All the ^99mTc(N) heterocomplex samples were found stable against transchelation by cystein or glutathione.
# [2] = Biodistribution of the 99mTc(N) heterocomplexes in rats (organ uptake, heart accumulation, heart/lung and heart/liver ratios); assay type: in vivo, female Sprague-Dawley rats
# Outline: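 Female Sprague-Dawley rats (200–250 g, n=3), ketamine/xylazine anaesthesia, got 300–370 kBq of each purified heterocomplex in pH 7.4 phosphate buffer (10% ethanol) via the jugular vein. They were killed at several post-injection times. Heart blood and washed, weighed organs were gamma-counted, taking whole blood as 6.5% of body weight.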
# [3] = Measurement of Log k′ (partition ratio) by HPLC, PNP3 heterocomplexes; assay type: physicochemical; details: HPLC C18, methanol/phosphate buffer (0.02M, pH 7.4), 1.0 mL/min; extrapolated to 0% organic solvent
# Protocol: For the various ^99mTc(N) heterocomplexes synthesized using PNP3 as a bisphosphinoamine compound in Example 1, Log k′ values were determined at various compositions of a mobile phase for HPLC. As the mobile phase, mixtures of methanol and phosphate buffer (0.02M, pH=7.4) were used at a flow rate of 1.0 mL/min. For each sample, the retention time was measured at a minimum of three different methanol concentrations in the mobile phase. The Log k′ values at 0% organic solvent (Log k′0) were extrapolated from the linear part of the curve Log k′=a+bC, where C is the methanol concentration, and Log k′ is Log (tR-to)/to wherein tR is HPLC retension time (min). The column void time (t0) was regarded as being equal to the elution time of pertechnetic acid.
smiles,measurement,setting,value
CCOCCN(CCOCC)C1=[S][99Tc+]2(#[N])([S]1)[P](CCCOC)(CCCOC)CCN(CCOC)CC[P]2(CCCOC)CCCOC [[^99mTc(N) (PNP3) (DBODC)]^+],Stability,[1],Stable
same,Biodistribution in rats: Adrenal glands,[2]; 0 min post injection,2.68 ± 0.44 % ID/g
same,Biodistribution in rats: Blood,[2]; 0 min post injection,0.55 ± 0.32 % ID/g
same,Biodistribution in rats: Brain,[2]; 0 min post injection,0.23 ± 0.04 % ID/g
same,Biodistribution in rats: Heart,[2]; 0 min post injection,3.57 ± 0.14 % ID/g
same,Biodistribution in rats: Intestine,[2]; 0 min post injection,2.43 ± 0.49 % ID/g
same,Biodistribution in rats: Kidneys,[2]; 0 min post injection,10.40 ± 2.16 % ID/g
same,Biodistribution in rats: Liver,[2]; 0 min post injection,1.46 ± 0.05 % ID/g
same,Biodistribution in rats: Lungs,[2]; 0 min post injection,1.54 ± 0.03 % ID/g
same,Biodistribution in rats: Muscle,[2]; 0 min post injection,0.23 ± 0.04 % ID/g
same,Biodistribution in rats: Spleen,[2]; 0 min post injection,1.84 ± 0.49 % ID/g
same,Biodistribution in rats: Submaxillary glands,[2]; 0 min post injection,1.25 ± 0.47 % ID/g
same,Biodistribution in rats: Adrenal glands,[2]; 2 min post injection,2.87 ± 1.00 % ID/g
same,Biodistribution in rats: Blood,[2]; 2 min post injection,0.11 ± 0.01 % ID/g
same,Biodistribution in rats: Brain,[2]; 2 min post injection,0.03 ± 0.00 % ID/g
same,Biodistribution in rats: Heart,[2]; 2 min post injection,3.42 ± 0.19 % ID/g
same,Biodistribution in rats: Intestine,[2]; 2 min post injection,7.42 ± 1.03 % ID/g
same,Biodistribution in rats: Kidneys,[2]; 2 min post injection,11.57 ± 2.37 % ID/g
same,Biodistribution in rats: Liver,[2]; 2 min post injection,1.72 ± 0.26 % ID/g
same,Biodistribution in rats: Lungs,[2]; 2 min post injection,1.01 ± 0.49 % ID/g
same,Biodistribution in rats: Muscle,[2]; 2 min post injection,0.23 ± 0.01 % ID/g
same,Biodistribution in rats: Spleen,[2]; 2 min post injection,2.00 ± 0.07 % ID/g
same,Biodistribution in rats: Submaxillary glands,[2]; 2 min post injection,1.27 ± 0.05 % ID/g
same,Biodistribution in rats: Adrenal glands,[2]; 10 min post injection,2.30 ± 0.73 % ID/g
same,Biodistribution in rats: Blood,[2]; 10 min post injection,0.03 ± 0.00 % ID/g
same,Biodistribution in rats: Brain,[2]; 10 min post injection,0.02 ± 0.00 % ID/g
same,Biodistribution in rats: Heart,[2]; 10 min post injection,3.65 ± 0.56 % ID/g
same,Biodistribution in rats: Intestine,[2]; 10 min post injection,12.11 ± 2.92 % ID/g
same,Biodistribution in rats: Kidneys,[2]; 10 min post injection,6.74 ± 0.63 % ID/g
same,Biodistribution in rats: Liver,[2]; 10 min post injection,1.43 ± 0.47 % ID/g
same,Biodistribution in rats: Lungs,[2]; 10 min post injection,0.77 ± 0.10 % ID/g
same,Biodistribution in rats: Muscle,[2]; 10 min post injection,0.23 ± 0.07 % ID/g
same,Biodistribution in rats: Spleen,[2]; 10 min post injection,1.28 ± 0.12 % ID/g
same,Biodistribution in rats: Submaxillary glands,[2]; 10 min post injection,1.42 ± 0.24 % ID/g
same,Biodistribution in rats: Adrenal glands,[2]; 20 min post injection,2.69 ± 0.37 % ID/g
same,Biodistribution in rats: Blood,[2]; 20 min post injection,0.02 ± 0.01 % ID/g
same,Biodistribution in rats: Brain,[2]; 20 min post injection,0.02 ± 0.01 % ID/g
same,Biodistribution in rats: Heart,[2]; 20 min post injection,3.32 ± 0.18 % ID/g
same,Biodistribution in rats: Intestine,[2]; 20 min post injection,13.03 ± 3.19 % ID/g
same,Biodistribution in rats: Kidneys,[2]; 20 min post injection,6.12 ± 0.11 % ID/g
same,Biodistribution in rats: Liver,[2]; 20 min post injection,0.87 ± 0.52 % ID/g
same,Biodistribution in rats: Lungs,[2]; 20 min post injection,0.84 ± 0.06 % ID/g
same,Biodistribution in rats: Muscle,[2]; 20 min post injection,0.13 ± 0.02 % ID/g
same,Biodistribution in rats: Spleen,[2]; 20 min post injection,0.92 ± 0.10 % ID/g
same,Biodistribution in rats: Submaxillary glands,[2]; 20 min post injection,1.32 ± 0.21 % ID/g
same,Biodistribution in rats: Adrenal glands,[2]; 30 min post injection,2.94 ± 0.18 % ID/g
same,Biodistribution in rats: Blood,[2]; 30 min post injection,0.02 ± 0.00 % ID/g
same,Biodistribution in rats: Brain,[2]; 30 min post injection,0.02 ± 0.02 % ID/g
same,Biodistribution in rats: Heart,[2]; 30 min post injection,3.27 ± 0.36 % ID/g
same,Biodistribution in rats: Intestine,[2]; 30 min post injection,13.41 ± 4.62 % ID/g
same,Biodistribution in rats: Kidneys,[2]; 30 min post injection,5.67 ± 0.39 % ID/g
same,Biodistribution in rats: Liver,[2]; 30 min post injection,0.42 ± 0.01 % ID/g
same,Biodistribution in rats: Lungs,[2]; 30 min post injection,0.69 ± 0.12 % ID/g
same,Biodistribution in rats: Muscle,[2]; 30 min post injection,0.24 ± 0.08 % ID/g
same,Biodistribution in rats: Spleen,[2]; 30 min post injection,0.95 ± 0.02 % ID/g
same,Biodistribution in rats: Submaxillary glands,[2]; 30 min post injection,1.49 ± 0.22 % ID/g
same,Biodistribution in rats: Adrenal glands,[2]; 60 min post injection,2.17 ± 0.35 % ID/g
same,Biodistribution in rats: Blood,[2]; 60 min post injection,0.01 ± 0.00 % ID/g
same,Biodistribution in rats: Brain,[2]; 60 min post injection,0.01 ± 0.00 % ID/g
same,Biodistribution in rats: Heart,[2]; 60 min post injection,3.27 ± 0.62 % ID/g
same,Biodistribution in rats: Intestine,[2]; 60 min post injection,4.39 ± 2.86 % ID/g
same,Biodistribution in rats: Kidneys,[2]; 60 min post injection,4.24 ± 0.53 % ID/g
same,Biodistribution in rats: Liver,[2]; 60 min post injection,0.16 ± 0.05 % ID/g
same,Biodistribution in rats: Lungs,[2]; 60 min post injection,0.34 ± 0.11 % ID/g
same,Biodistribution in rats: Muscle,[2]; 60 min post injection,0.17 ± 0.01 % ID/g
same,Biodistribution in rats: Spleen,[2]; 60 min post injection,0.42 ± 0.11 % ID/g
same,Biodistribution in rats: Submaxillary glands,[2]; 60 min post injection,1.29 ± 0.28 % ID/g
same,Biodistribution in rats: Adrenal glands,[2]; 120 min post injection,2.53 ± 0.27 % ID/g
same,Biodistribution in rats: Blood,[2]; 120 min post injection,0.01 ± 0.00 % ID/g
same,Biodistribution in rats: Brain,[2]; 120 min post injection,0.01 ± 0.00 % ID/g
same,Biodistribution in rats: Heart,[2]; 120 min post injection,3.00 ± 0.42 % ID/g
same,Biodistribution in rats: Intestine,[2]; 120 min post injection,7.03 ± 2.61 % ID/g
same,Biodistribution in rats: Kidneys,[2]; 120 min post injection,3.48 ± 0.61 % ID/g
same,Biodistribution in rats: Liver,[2]; 120 min post injection,0.12 ± 0.03 % ID/g
same,Biodistribution in rats: Lungs,[2]; 120 min post injection,0.27 ± 0.05 % ID/g
same,Biodistribution in rats: Muscle,[2]; 120 min post injection,0.36 ± 0.15 % ID/g
same,Biodistribution in rats: Spleen,[2]; 120 min post injection,0.21 ± 0.03 % ID/g
same,Biodistribution in rats: Submaxillary glands,[2]; 120 min post injection,1.59 ± 0.19 % ID/g
same,Log k′ (partition ratio),[3],3.82
